# Source: US20240025880A1 (CHIESI FARMACEUTICI S.P.A., priority 2020, published 2024)
# Molecular target: T1, h P2X3 (Homo sapiens, UniProt P56373)
# T1 sequence (P56373 1-397): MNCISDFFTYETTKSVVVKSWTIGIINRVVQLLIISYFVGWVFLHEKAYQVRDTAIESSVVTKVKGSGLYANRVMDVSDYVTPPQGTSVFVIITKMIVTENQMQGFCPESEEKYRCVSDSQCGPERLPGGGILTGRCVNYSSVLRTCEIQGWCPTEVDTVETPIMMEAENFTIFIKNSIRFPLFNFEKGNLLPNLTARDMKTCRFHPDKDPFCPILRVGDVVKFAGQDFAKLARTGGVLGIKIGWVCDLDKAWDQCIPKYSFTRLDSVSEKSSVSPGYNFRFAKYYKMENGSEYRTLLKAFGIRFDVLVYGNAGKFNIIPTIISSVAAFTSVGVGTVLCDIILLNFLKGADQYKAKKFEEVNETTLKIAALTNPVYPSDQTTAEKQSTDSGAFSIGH
# Test: In vitro electrophysiology assay for P2X3 (automated whole-cell patch clamp, α,β-MeATP agonist)
# Type: cell-based
# Conditions: Table 2; 800 nM α,β-MeATP, peak current; read-out: h P2X3 (pIC50 range of activity) (converted)
# Method: In Vitro Electrophysiology Assay for P2X3
# Cells expressing P2X3 receptors were grown according to standard practice and maintained at 37° C. in a 5% humidified CO2 atmosphere. The cells were seeded into T175 flask 2 days prior to the day of the assay and dissociated from the flasks using TrypLE when grown to confluence of 80-90%. The dissociated cells were resuspended in serum free media at a cell density of 3×10^6 cells/ml and loaded onto the Sophion Qube automated patch-clamp system. The extracellular assay buffer contained 145 mM NaCl, 4 mM KCl, 2 mM CaCl2, 1 mM MgCl2, 10 mM HEPES, and 10 mM glucose at pH 7.4. The intracellular assay solution contained 140 mM CsF, 10 mM NaCl, 10 mM EGTA, 10 mM HEPES at pH 7.2. Agonist stock solutions were prepared in H2O and diluted in bath solution prior to use. All antagonists were prepared as 10 mM stock solutions in DMSO and diluted in bath solution prior to use. All experiments were performed under the whole-cell patch clamp configuration at room temperature with 384 individual cells being voltage clamped at −60 mV simultaneously on the Sophion Qube instrument. Two baseline responses were established with the application of α,β-MeATP (800 nM), with the subsequent agonist applications being washed out using extracellular assay buffer containing 0.5 U/ml apyrase. Following the second agonist application, antagonist was incubated in the absence of α,β-MeATP for 10 minutes. After antagonist preincubation, 800 nM α,β-MeATP and antagonist were co-administered to determine the inhibitory effect of the antagonist. One concentration of an antagonist was assessed against a single cell, with different concentrations of the antagonist applied to other cells on the 384 recording substrate. The control P2X3 current amplitude was taken from the peak current amplitude from the second agonist response prior to preincubation with antagonist. The peak P2X3 current amplitude in the presence of antagonist was used to calculate the inhibitory effect at each concentration of the antagonist according to the following equation:
# Percentage inhibition of P2X3=(P2X3 control peak amplitude−P2X3 antagonist peak amplitude)/P2X3 control peak amplitude)*100
# Concentration-response curves were constructed from ten different concentrations with each concentration of antagonist tested on at least two individual cells. The concentration of the antagonist to inhibit P2X3 current by 50% (IC50) was determined by fitting the data with the following equation:
# Y=a+[(b−a)/(1+10^((log c−x)d)]
# Where ‘a’ is minimum response, ‘b’ is maximum response, ‘c’ is IC50 and ‘d’ is Hill slope.
row,SMILES,IC50 [nM]
1,"Cc1ccc([C@@H](C)Nc2ncnc3c(S(=O)(=O)N4CCC(O)CC4)cc(-c4ccc(F)cc4)cc23)nn1 [Example 19, (R)-1-((6-(4-fluorophenyl)-4-((1-(6-methylpyridazin-3-yl)ethyl)amino)quinazolin-8-yl)sulfonyl)piperidin-4-ol]",316 to 3160
2,"CCOC(=O)[C@H]1CCC[C@H]1NC(=O)COc1cc(-c2ccc(F)cc2)cc2c(NCc3ccc(C)nn3)ncnc12 [Example 46, Ethyl (1S,2R)-2-(2-((6-(4-fluorophenyl)-4-(((6-methylpyridazin-3-yl)methyl)amino)quinazolin-8-yl)oxy)acetamido)cyclopentane-1-carboxylate]",316 to 3160
3,"Cc1ccc(CNc2ncnc3c(OC4COC4)cc(-c4ccc(F)cc4)cc23)nn1 [Example 63, 6-(4-fluorophenyl)-N-((6-methylpyridazin-3-yl)methyl)-8-(oxetan-3-yloxy)quinazolin-4-amine]",316 to 3160
4,"Cc1nnc(C(C)Nc2ncnc3c(S(=O)(=O)N4CCOCC4)cc(-c4ccc(F)cc4)cc23)s1 (racemic) [Example 12, (Rac)-6-(4-fluorophenyl)-N-(1-(5-methyl-1,3,4-thiadiazol-2-yl)ethyl)-8-(morpholinosulfonyl)quinazolin-4-amine]",< 316
5,"Cc1cnc(-c2cc(OCC(=O)NS(=O)(=O)c3ccccc3)c3ncnc(NCc4ccc(C)nn4)c3c2)nc1 [Example 49, Ammonium (2-((4-(((6-methylpyridazin-3-yl)methyl)amino)-6-(5-methylpyrimidin-2-yl)quinazolin-8-yl)oxy)acetyl)(phenylsulfonyl) amide]",< 316
6,"Cc1nnc(C(C)Nc2ncnc3c(OCC(F)F)cc(-c4ccc(F)cn4)cc23)s1 (single isomer, unassigned; enantiomer 2) [Example 7, Single enantiomer 2 of 8-(2,2-difluoroethoxy)-6-(5-fluoro-2-pyridyl)-N-[1-(5-methyl-1,3,4-thiadiazol-2-yl)ethyl]quinazolin-4-amine]",3160 to 31600
7,"Cc1ccc(CNc2ncnc3c(OC4CCN(C)C4=O)cc(-c4ccc(F)cc4)cc23)nn1 (centres unmarked) [Example 56, 3-[6-(4-fluorophenyl)-4-[(6-methylpyridazin-3-yl)methylamino]quinazolin-8-yl]oxy-1-methyl-pyrrolidin-2-one]",316 to 3160
8,"Cc1ccc([C@@H](C)Nc2ncnc3c(S(=O)(=O)N4CCOCC4)cc(-c4ccc(F)cc4)cc23)nn1 [Example 10, (R)-6-(4-fluorophenyl)-N-(1-(6-methylpyridazin-3-yl)ethyl)-8-(morpholinosulfonyl)quinazolin-4-amine]",316 to 3160
9,"Cc1ccc([C@@H](C)Nc2ncnc3c(S(=O)(=O)N4CCNCC4)cc(-c4ccc(F)cc4)cc23)nn1 [Example 24, (R)-6-(4-fluorophenyl)-N-(1-(6-methylpyridazin-3-yl)ethyl)-8-(piperazin-1-ylsulfonyl)quinazolin-4-amine]",316 to 3160
10,"CCc1noc(COc2cc(-c3ccc(F)cc3)cc3c(NCc4ccc(C)nn4)ncnc23)n1 [Example 59, 8-[(3-ethyl-1,2,4-oxadiazol-5-yl)methoxy]-6-(4-fluorophenyl)-N-[(6-methylpyridazin-3-yl)methyl]quinazolin-4-amine]",< 316
11,"Cc1ccc(CNc2ncnc3c(OCC(F)F)cc(-c4ccc(F)cn4)cc23)nn1 [Example 4, 8-(2,2-difluoroethoxy)-6-(5-fluoropyridin-2-yl)-N-((6-methylpyridazin-3-yl)methyl)quinazolin-4-amine]",316 to 3160

# Other lines, results leading:
row,IC50 [nM],SMILES
1,316 to 3160,"COC(=O)N1CCC(COc2cc(-c3ccc(F)cc3)cc3c(NCc4ccc(C)nn4)ncnc23)C1 (centres unmarked) [Example 67, Methyl 3-[[6-(4-fluorophenyl)-4-[(6-methylpyridazin-3-yl)methylamino]quinazolin-8-yl]oxymethyl]pyrrolidine-1-carboxylate]"
2,< 316,"Cc1ccc(CNc2ncnc3c(OCC(=O)N[C@H]4CCC[C@H]4C(=O)O)cc(-c4ccc(F)cc4)cc23)nn1 [Example 45, (1R,2S)-2-(2-((6-(4-fluorophenyl)-4-(((6-methylpyridazin-3-yl)methyl)amino)quinazolin-8-yl)oxy)acetamido)cyclopentane-1-carboxylic acid]"
3,< 316,"Cc1ccc(CNc2ncnc3c(OCC4(C)COC4)cc(-c4ccc(F)cc4)cc23)nn1 [Example 50, 6-(4-fluorophenyl)-8-[(3-methyloxetan-3-yl)methoxy]-N-[(6-methylpyridazin-3-yl)methyl]quinazolin-4-amine]"
4,< 316,C[C@@H](Nc1ncnc2c(S(=O)(=O)N3CCOCC3)cc(-c3ccc(F)cc3)cc12)c1cnc(C(F)(F)F)nc1 [Example 11]
5,316 to 3160,"Cc1ccc([C@@H](C)Nc2ncnc3c(OCC(F)F)cc(-c4ccc(F)cn4)cc23)nn1 [Example 5, (R)-8-(2,2-difluoroethoxy)-6-(5-fluoropyridin-2-yl)-N-(1-(6-methylpyridazin-3-yl)ethyl)quinazolin-4-amine]"
6,316 to 3160,"C[C@@H](Nc1ncnc2c(OC3CCN(CC(F)(F)F)C3)cc(-c3ccc(F)cc3)cc12)c1cnc(C(F)(F)F)nc1 (stereo partly drawn) [Example 33, 6-(4-fluorophenyl)-8-((1-(2,2,2-trifluoroethyl)pyrrolidin-3-yl)oxy)-N-((R)-1-(2-(trifluoromethyl)pyrimidin-5-yl)ethyl)quinazolin-4-amine]"
7,3160 to 31600,"Cc1ccc([C@@H](C)Nc2ncnc3c(SC4COC4)cc(-c4ccc(F)cc4)cc23)nn1 [Example 28, (R)-6-(4-fluorophenyl)-N-(1-(6-methylpyridazin-3-yl)ethyl)-8-(oxetan-3-ylthio)quinazolin-4-amine]"
8,316 to 3160,"C[C@@H](Nc1ncnc2c(OCC(=O)NC3(C(=O)O)CC3)cc(-c3ccc(F)cc3)cc12)c1cnc(C(F)(F)F)nc1 [Example 44, (R)-1-(2-((6-(4-fluorophenyl)-4-((1-(2-(trifluoromethyl)pyrimidin-5-yl)ethyl)amino)quinazolin-8-yl)oxy)acetamido)cyclopropane-1-carboxylic acid]"
9,< 316,"C[C@@H](Nc1ncnc2c(OCC(=O)O)cc(-c3ccc(F)cc3)cc12)c1cnc(C(F)(F)F)nc1 [Example 39, (R)-2-((6-(4-fluorophenyl)-4-((1-(2-(trifluoromethyl)pyrimidin-5-yl)ethyl)amino)quinazolin-8-yl)oxy)acetic acid]"
10,316 to 3160,"C[C@@H](Nc1ncnc2c(OCC3(C(=O)O)CC3)cc(-c3ccc(F)cc3)cc12)c1cnc(C(F)(F)F)nc1 [Example 41, (R)-1-(((6-(4-fluorophenyl)-4-((1-(2-(trifluoromethyl)pyrimidin-5-yl)ethyl)amino)quinazolin-8-yl)oxy)methyl)cyclopropane-1-carboxylic acid]"
11,< 316,"Cc1ccc(CNc2ncnc3c(OCc4ncco4)cc(-c4ccc(F)cc4)cc23)nn1 [Example 57, 6-(4-fluorophenyl)-N-[(6-methylpyridazin-3-yl)methyl]-8-(oxazol-2-ylmethoxy)quinazolin-4-amine]"
12,316 to 3160,"Cc1nnc(C(C)Nc2ncnc3c(S(=O)(=O)N4CCC(F)(F)C4)cc(-c4ccc(F)cc4)cc23)s1 (centres unmarked) [Example 18, 8-((3,3-difluoropyrrolidin-1-yl)sulfonyl)-6-(4-fluorophenyl)-N-(1-(5-methyl-1,3,4-thiadiazol-2-yl)ethyl)quinazolin-4-amine]"
